Format in all cases: in vivo
One data set relates to cyp7α. The experiment in a line: Liver cyp7α gene expression by quantitative PCR after FXR agonist (Example 2). As to conditions: KKAy mice, 10 mg/kg orally for 4 days, liver on 5th day, FIG. 6-1. As for the experimental part: (§1) An FXR agonist, GW-4064 (J. Med. Chem., vol. 43(16), pp. 2971-2974, 2000), was orally administered in a dosage of 10 mg/kg for 4 days. On the 5th day, mice were dissected to isolate the livers.

A further data set relates to SHP. Nature of the data set: Liver SHP gene expression by quantitative PCR after FXR agonist (Example 2). As to conditions: KKAy mice, 10 mg/kg orally for 4 days, liver on 5th day, FIG. 6-2. As for the experimental part:
as §1

The subject of the next data set is PEPCK. Nature of the data set: Liver PEPCK gene expression by quantitative PCR after FXR agonist (Example 2). As to conditions: KKAy mice, 10 mg/kg orally for 4 days, liver on 5th day, FIG. 7. As for the experimental part: as §1

Molecules are shown by their SMILES.

The values below come from patent US20100055066A1, “Agent for prophylactic and/or therapeutic treatment of diabetes” (priority 2004, published 2010).

Regarding `CC(C)c1onc(-c2c(Cl)cccc2Cl)c1COc1ccc(/C=C/c2cccc(C(=O)O)c2)c(Cl)c1` [GW-4064], the “expression level of the gene for cyp7α in the liver compared with control group” value in the data set with cyp7α is reported as “decreased”. The “expression level of the gene for SHP in the liver compared with control group” value with SHP was “increased”. The “expression level of the gene for PEPCK in the liver compared with control group” value in the data set on PEPCK is reported as “increased”.
